Laboratory results: patent US6143492A, “Optical molecular sensors for cytochrome P450 activity” (Aurora Biosciences Corporation, priority 1999, dated 2000)
Read-outs that look alike come from different tables or passages of the source.

Tests used:
CYP 2C9 = CYP 2C9 (Homo sapiens, UniProt P11712); test: Kinetics of fluorogenic substrates with CYP 2C9; format: biochemical; conditions: for v (1.25 uM), turnover rate at 1.25 μM: CYP 2C9, substrate 1.25 uM; for v (10 uM), turnover rate at 10 μM: CYP 2C9, substrate 10 uM
CYP 2D6 = CYP 2D6 (Homo sapiens, UniProt P10635); test: Kinetics of fluorogenic substrates with CYP 2D6; format: biochemical
CYP 2D6, sequence (P10635 whole entry): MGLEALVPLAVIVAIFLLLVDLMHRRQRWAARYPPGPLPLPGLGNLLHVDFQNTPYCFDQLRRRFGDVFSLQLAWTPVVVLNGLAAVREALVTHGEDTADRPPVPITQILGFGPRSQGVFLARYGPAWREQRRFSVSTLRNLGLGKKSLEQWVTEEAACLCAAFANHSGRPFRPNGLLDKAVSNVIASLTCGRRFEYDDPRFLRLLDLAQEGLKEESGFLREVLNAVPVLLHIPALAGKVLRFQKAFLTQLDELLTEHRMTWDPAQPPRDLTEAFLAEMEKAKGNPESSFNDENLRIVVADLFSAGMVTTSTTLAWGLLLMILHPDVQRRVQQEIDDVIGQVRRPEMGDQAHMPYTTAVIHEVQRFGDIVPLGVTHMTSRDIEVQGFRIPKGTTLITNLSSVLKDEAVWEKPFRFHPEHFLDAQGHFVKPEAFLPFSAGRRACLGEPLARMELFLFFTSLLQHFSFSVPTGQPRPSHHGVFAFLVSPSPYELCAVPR

CYP 2B6 [1] = biological target: T1, CYP 2B6 (Homo sapiens, UniProt P20813)
T1 sequence (P20813 1-491): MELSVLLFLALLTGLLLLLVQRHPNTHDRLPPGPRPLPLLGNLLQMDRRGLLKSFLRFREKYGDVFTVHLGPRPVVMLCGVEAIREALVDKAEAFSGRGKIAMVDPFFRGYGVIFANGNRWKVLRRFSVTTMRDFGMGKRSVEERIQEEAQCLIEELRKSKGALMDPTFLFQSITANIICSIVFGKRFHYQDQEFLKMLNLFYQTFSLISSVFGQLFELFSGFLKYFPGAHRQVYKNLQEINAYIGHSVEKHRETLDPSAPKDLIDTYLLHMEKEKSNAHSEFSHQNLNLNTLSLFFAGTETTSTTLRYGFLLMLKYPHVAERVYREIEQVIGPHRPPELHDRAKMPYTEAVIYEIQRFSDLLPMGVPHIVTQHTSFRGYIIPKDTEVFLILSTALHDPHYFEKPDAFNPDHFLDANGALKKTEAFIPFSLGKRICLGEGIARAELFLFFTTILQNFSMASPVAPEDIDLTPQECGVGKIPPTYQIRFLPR

CYP 3A4 = biological target: T2, CYP 3A4 (Homo sapiens, UniProt P08684); test: Kinetics of fluorogenic substrates with CYP 3A4; format: biochemical
T2 construct: NADPH regenerating system
T2 sequence (P08684 whole entry): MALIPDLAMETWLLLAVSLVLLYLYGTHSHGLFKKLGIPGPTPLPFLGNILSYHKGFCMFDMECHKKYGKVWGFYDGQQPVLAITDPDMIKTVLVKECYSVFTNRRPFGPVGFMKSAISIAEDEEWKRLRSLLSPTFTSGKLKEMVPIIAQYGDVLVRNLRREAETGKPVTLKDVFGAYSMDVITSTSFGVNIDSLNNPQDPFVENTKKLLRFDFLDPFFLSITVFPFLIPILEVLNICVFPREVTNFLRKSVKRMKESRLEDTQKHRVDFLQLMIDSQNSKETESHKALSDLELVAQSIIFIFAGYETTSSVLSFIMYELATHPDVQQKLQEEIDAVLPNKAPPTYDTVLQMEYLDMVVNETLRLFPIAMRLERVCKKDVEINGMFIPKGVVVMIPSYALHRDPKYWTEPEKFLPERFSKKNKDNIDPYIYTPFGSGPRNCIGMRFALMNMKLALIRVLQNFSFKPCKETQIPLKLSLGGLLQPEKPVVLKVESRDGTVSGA
Excerpt: Whichever of the four abstractable hydrogen atoms (designated H^1 and H^2 in this representation of BOMR) is removed in the initial reaction step, with reference to Reaction Scheme 1 of FIG. 1, the hydroxylation product will spontaneously decompose to the free resorufin dye. In addition, the benzyloxy group, attached to the carbon carrying the two hydrogens designated H^2, contributes an inductive electronic effect on that carbon, which can stabilize the radical formed during abstraction of one of the H^2 hydrogens by a cytochrome P450.
Optimization of assay conditions was, and is preferably, accomplished through statistically validated Design of Experiments methodologies, using the commercial software package "Design-Expert®" produced by Stat-Ease® Inc. The data shown in FIGS. 4 and 5 were obtained with initial optimization.
For further understanding these terms in the context of this invention, attention is directed to FIG. 4 and the analysis of FIG. 4.

CYP 2B6 [2] = biological target: T1, CYP 2B6; test: Kinetics of fluorogenic substrates with CYP 2B6; conditions: for v (1.25 uM), turnover rate at 1.25 μM: CYP 2B6, substrate 1.25 uM; for v (10 uM), turnover rate at 10 μM: CYP 2B6, substrate 10 uM
[3] = substrate: COCOc1ccc2c(C(F)(F)F)cc(=O)oc2c1; test: Kinetics of fluorogenic substrates with CYP 2C9; format: biochemical, human; conditions: other: CYP 2C9
[4] = substrate: COc1ccc2c(C(F)(F)F)cc(=O)oc2c1; test: Kinetics of fluorogenic substrates with CYP 2C9; format: biochemical, human; conditions: other: CYP 2C9
[5] = substrate: N#Cc1cc2ccc(OCOCc3ccccc3)cc2oc1=O; test: Kinetics of fluorogenic substrates with CYP 2C9; format: biochemical, human; conditions: other: CYP 2C9

## COc1ccc2c(C(F)(F)F)cc(=O)oc2c1 [MFC, 7-Methoxy-4-trifluoromethylcoumarin, reference compound]
CYP 2C9; CYP 2C9
  kcat: 0.0067 s⁻¹
  type of kinetics: Michaelis-
CYP 2C9
  v (1.25 uM), turnover rate at 1.25 μM: 0.01 min⁻¹
  v (10 uM), turnover rate at 10 μM: 0.03 min⁻¹
CYP 2D6; CYP 2D6
  kcat: 0.005 s⁻¹
  type of kinetics: Michaelis-
CYP 2D6; CYP 2D6, substrate 1.25 uM
  v (1.25 uM), turnover rate at 1.25 μM: 0.03 min⁻¹
CYP 2D6; CYP 2D6, substrate 10 uM
  v (10 uM), turnover rate at 10 μM: 0.10 min⁻¹
CYP 2B6 [1]
  kcat: 0.0483 s⁻¹
  kcat/Km: 34524 M⁻¹ s⁻¹
  type of kinetics: Michaelis-
  v (1.25 uM), turnover rate at 1.25 μM: 1.63 min⁻¹
  v (10 uM), turnover rate at 10 μM: 2.53 min⁻¹
CYP 2B6 [1]; cyp 2b6
  Km: 1.4 µM

## O=c1ccc2nc3ccc(OCc4ccccc4)cc3oc-2c1 [BR, Benzylresorufin, reference compound]
CYP 3A4; CYP 3A4
  kcat: 0.0017 s⁻¹
  kcat/Km: 377 M⁻¹ s⁻¹
  type of kinetics: Michaelis-
CYP 3A4; CYP 3A4, FIG. 4 data
  turnover rate (kcat): 0.00167 s⁻¹
CYP 3A4; CYP 3A4, substrate 1.25 uM
  v (1.25 uM), turnover rate at 1.25 μM: 0.02 min⁻¹
CYP 3A4; CYP 3A4, substrate 10 uM
  v (10 uM), turnover rate at 10 μM: 0.08 min⁻¹
CYP 2B6 [2]; CYP 2B6
  type of kinetics: not Michaelis-
CYP 2B6 [2]
  v (1.25 uM), turnover rate at 1.25 μM: 0.42 min⁻¹
  v (10 uM), turnover rate at 10 μM: 0.42 min⁻¹

## COCOc1ccc2c(C(F)(F)F)cc(=O)oc2c1 [MOMFC, 7-methyloxymethyloxy-4-trifluoromethylcoumarin]
CYP 2C9; CYP 2C9
  conversion to the same fluorescent product vs the most closely structurally-related substrate: more efficient conversion
  kcat: 0.0017 s⁻¹
  type of kinetics: Michaelis-
CYP 2C9
  v (1.25 uM), turnover rate at 1.25 μM: 0.00 min⁻¹
  v (10 uM), turnover rate at 10 μM: 0.07 min⁻¹
CYP 2B6 [2]; CYP 2B6
  conversion to the same fluorescent product vs the most closely structurally-related substrate: less efficiently converted
  type of kinetics: not Michaelis-
CYP 2B6 [2]
  v (1.25 uM), turnover rate at 1.25 μM: 0.54 min⁻¹
  v (10 uM), turnover rate at 10 μM: 0.71 min⁻¹

B1: CYP 2C9 (Homo sapiens) (protein)
chain: MDSLVVLVLCLSCLLLLSLWRQSSGRGKLPPGPTPLPVIGNILQIGIKDISKSLTNLSKVYGPVFTLYFGLKPIVVLHGYEAVKEALIDLGEEFSGRGIFPLAERANRGFGIVFSNGKKWKEIRRFSLMTLRNFGMGKRSIEDRVQEEARCLVEELRKTKASPCDPTFILGCAPCNVICSIIFHKRFDYKDQQFLNLMEKLNENIKILSSPWIQICNNFSPIIDYFPGTHNKLLKNVAFMKSYILEKVKEHQESMDMNNPQDFIDCFLMKMEKEKHNQPSEFTIESLENTAVDLFGAGTETTSTTLRYALLLLLKHPEVTAKVQEEIERVIGRNRSPCMQDRSHMPYTDAVVHEVQRYIDLLPTSLPHAVTCDIKFRNYLIPKGTTILISLTSVLHDNKEFPNPEMFDPHHFLDEGGNFKKSKYFMPFSAGKRICVGEALAGMELFLFLTSILQNFNLKSLVDPKNLDTTPVVNGFASVPPFYQLCFIPV
[3]
  Km: 14.9 µM
  kcat/Km: 157 M⁻¹ s⁻¹
[4]
  Km: 103.0 µM
  kcat: 0.0067 s⁻¹
  kcat/Km: 70 M⁻¹ s⁻¹
[5]
  Km: 3.0 µM
  kcat/Km: 814 M⁻¹ s⁻¹
